# Columns and labels:
# [1] = system: Menin on chromatin in MV4;11 MEN1 M327I/M327I cells; experiment: ChIP-Seq of Menin chromatin occupancy; format: cell-based, human; conditions: 5 μM, M327I mutant
# Description: (§1) Cells were sequentially cross-linked using 2 mM DSG disuccinimidyl glutarate for 30 min and a final concentration of 1% formaldehyde for 10 min at room temperature (20-25° C.) and stopped with 125 mM glycine. Cells were lysed in lysis buffer (20 mM Tris-HCl at pH 7.5. 300 mM NaCl, 2 mM EDTA, 0.5% NP40, 1% Triton X-100, 1 mM PMSF, PIC) and incubated on ice for 30 min. The resuspended cells were then dounced in an ice-cold homogenizer. Nuclear pellets were collected and resuspended in shearing buffer (0.1% SDS, 0.5% N-lauroylsarcosine, 1% Triton X-100, 10 mM Tris-HCl at pH 8.1, 100 mM NaCl, 1 mM EDTA. 1 mM PMSF, PIC). Isolated chromatin was fragmented to an average size of 200-600 bp with a bioruptor (Diagenode). Precleared chromatin was immunoprecipitated overnight at 4° C. and immunocomplexes were collected with protein A Dynabeads. […] Reads were aligned to human GRCh38/hg38 genome using STAR 2.7.5. Aligned BAM files were sorted, duplicate reads marked and removed, and deduplicated BAMs indexed using Broad picard tools v2.9.4. Signal intensities around transcription start sites (TSS, +/−3000 bp) were quantified using BEDtools (v. 2.28.0) and data visualizations were produced using IGVtools (TDF signal pileups; v2.3.75) and ngs.plot (pileup heatmaps/torpedo plots). […]
# [2] = system: Menin on chromatin in MV4;11 MEN1-WT cells; experiment: ChIP-Seq of Menin chromatin occupancy; format: cell-based, human; conditions: 100 nM
# Description: as §1
smiles,measurement,setting,value
"CCN(C(=O)c1cc(F)ccc1Oc1cncnc1N1CC2(CCN(C[C@H]3CC[C@H](NS(=O)(=O)CC)CC3)CC2)C1)C(C)C [SNDX-5613, revumenib]",Menin chromatin occupancy,[1],partial decrease in Menin chromatin occupancy
same,displacement of Menin from chromatin,[2],near-complete and global displacement of Menin from chromatin

# — US20260185163A1, “MEN1 MUTATIONS AND USES THEREOF” (DANA-FARBER CANCER INSTITUTE, INC., priority 2022, published 2026)
